Source: publication PMC10095747, “Modulatory Effects of Atractylodin and β-Eudesmol on Human Cytochrome P450 Enzymes: Potential Drug-Drug Interactions” (Molecules, 2023)

Experiments:
mCYP1A2 [1] = assay: ex vivo mCYP1A2 protein expression in mouse liver microsomes (western blot); details: daily oral 100 mg/kg body weight
Excerpt: (§1) Eight-week-old male ICR (Imprinting Control Region) mice weighing 35–40 g were used to investigate the modulatory effects of atractylodin and β-eudesmol on mCYP1A2 and mCYP3A11. The study protocol was approved by the Ethics Committee for Animal Research at Thammasat University (protocol number 016/2020). All animals were obtained from Nomura Siam International Co., Ltd. (Bangkok, Thailand). The animals were acclimatized for one week before the experiments. A total of 36 mice were allocated to three groups (i) control group (3 mice), (ii) atractylodin-treated group, and (iii) β-eudesmol-treated group. For atractylodin and β-eudesmol-treated groups, animals were fed with 100 mg/kg body weight of each compound for 1, 7, 14, and 21 (3 mice for each dose). Experiments were performed under the guidelines for the care and use of laboratory animals in a controlled environment of 12 h dark/light cycle, temperature 22 ± 2 °C, and relative humidity 30–70% at the Thammasat University Animal Center. Animals were observed daily for changes in signs and symptoms by a veterinarian. Mice were allowed access to the food pellets and water ad libitum.
(§2) Mouse liver samples were cut into small pieces, and the liver microsomes were prepared as described previously. The concentrations of proteins in the microsomes were determined using Pierce™ BCA Protein Assay Kit. mCYP1A2 and mCYP3A11 activities were evaluated based on phenacetin O-deethylation and nifedipine oxidation activities, respectively. The incubation mixture of 500 µL consisted of microsomes, substrate ([…]), and NADPH. […] The final organic solvent concentration in the incubation mixture was not higher than 1%. Each experiment was repeated three times (duplicated each). Determination of the concentrations of metabolites of mCYP1A2 (paracetamol) and mCYP3A11 (dehydronifedipine) in the reaction was performed using HPLC Agilent 1260 Infinity II with mobile gradient phase between methanol and distilled water at an initial ratio of 20:80 (v:v) and UV detection (240 nm). Calibration curves for both CYP450 activities were created over a concentration range of 1–50 µM. Oxidized nifedipine concentrations were determined using HPLC as follows: UV detection at 235 nm with an isocratic mobile phase consisting of methanol and distilled water (70:30, v:v). […] In each analytical batch, quality control (QC) samples were run in duplicate at low, medium, and high concentrations. Acceptance criteria were four out of six QC analyses falling within 100 ± 15% of the nominal values.
(§3) The microsomal protein concentration for both mCYP1A2 and […] was 25 μg protein per lane. Proteins were denatured by combining equal volumes of liver microsomes with sample buffer (1:19 (v:v) of 2-mercaptoethanol and 2x Laemmle buffer) and heating at 100 °C for 5 min. Proteins were separated using 12% SDS-PAGE according to their size characteristics before being migrated to nitrocellulose blotting membranes.

mCYP1A2 [2] = assay: ex vivo mCYP1A2 activity in mouse liver microsomes (phenacetin O-deethylation); details: daily oral 100 mg/kg body weight
Excerpt: (§4) Phenacetin and nifedipine are substrates of CYP1A2 and CYP3A11, respectively. Both substrates are converted via the CYP enzyme to paracetamol and dehydronefedipine, respectively. The concentrations of paracetamol and dehydronefedipine were used to determine the activities of mCYP1A2 and mCYP3A11. The effects of atractylodin and β-eudesmol on mCYP1A2 and mCYP3A11 activities were, respectively, determined by measuring paracetamol (mCYP1A2-dependent metabolite) and dehydronifiedipine (mCYP3A11-dependent metabolite) concentrations.
as §1, §2

hCYP2C9 = tested on: hCYP2C9; set-up: method as in PMID 35139770; details: ligand-binding difference spectroscopy; cited from earlier work
rCYP2C9 = rCYP2C9 (Homo sapiens, UniProt P11712); assay: luminogenic P450-Glo CYP450 inhibition assay, rCYP2C9; details: Median IC50 (Range) rCYP2C9, median (range), three independent experiments
Excerpt: (§5) The luminescent cytochrome P450 assay was used to determine CYP450-mediated (CYP1A2, 2C9, 2C19, 2D6, and 3A4) metabolism of atractylodin and β-eudesmol. The assay consisted of each recombinant human CYP450 (rCYP450), control membranes lacking P450 activity, a luminogenic CYP450 substrate (luciferin-ME substrate for rCYP1A2, luciferin-H substrate for rCYP2C9, luciferin-H EGE substrate for rCYP2C19, luciferin-ME EGE substrate for rCYP2D6, and luciferin-IPA substrate for rCYP3A4), KPO4 buffer, luciferin free water, NADPH regeneration system, and a luciferin detection reagent. The rCYP450 enzymes were generated from a baculovirus-infected insect cell expression system. The concentrations of the recombinant CYPs used were 0.5 (rCYP1A2 and rCYP2C9), 0.25 (rCYP2C19 and rCYP2D6) or 0.2 (rCYP3A4) pmol (0.5μL) per reaction. […] A luciferin product was produced after adding 25 µL of NADPH Regeneration System (solution A, solution B, and luciferin-free water) and incubated at 37 °C for 10 (rCYP1A2 and rCYP3A4), 20 (rCYP2C19 and rCYP2C9) or 30 (rCYP2D6) minutes. The reaction was stopped and converted to a luminescent signal after adding Luciferin Detection Reagent (50 µL) and incubated at 25 °C for 20 min. The luminescence signals obtained were determined using a Varioskan® Flash microplate reader (Waltham, MA, USA). The magnitude of luminescence in all of the samples represented CYP450 activity. […] All stock solutions were diluted with luciferin-free water until the final concentration of organic solvent was less than 0.25% (v/v) of the total reaction. The concentration range of atractylodin and β-eudesmol used were 2.74–686 µM and 2.25–562 µM, respectively. […] The concentration that inhibited the activity of each rCYP450 by 50% (IC50) was calculated using Calcusyn software (Cambridge, UK). Data are reported as the median (range) of the three independent experiments.

mCYP3A11 [3] = assay: ex vivo mCYP3A11 activity in mouse liver microsomes (nifedipine oxidation); details: daily oral 100 mg/kg body weight
Excerpt: as §4, §1, §2

rCYP2C19 = rCYP2C19 (Homo sapiens, UniProt P33261); assay: luminogenic P450-Glo CYP450 inhibition assay, rCYP2C19; details: Median IC50 (Range) rCYP2C19, median (range), three independent experiments
Excerpt: as §5

mCYP3A11 [4] = assay: ex vivo mCYP3A11 protein expression in mouse liver microsomes (western blot); details: daily oral 100 mg/kg body weight
Excerpt: as §1, §2, §3

Sequence of rCYP2C19 (P33261 whole entry): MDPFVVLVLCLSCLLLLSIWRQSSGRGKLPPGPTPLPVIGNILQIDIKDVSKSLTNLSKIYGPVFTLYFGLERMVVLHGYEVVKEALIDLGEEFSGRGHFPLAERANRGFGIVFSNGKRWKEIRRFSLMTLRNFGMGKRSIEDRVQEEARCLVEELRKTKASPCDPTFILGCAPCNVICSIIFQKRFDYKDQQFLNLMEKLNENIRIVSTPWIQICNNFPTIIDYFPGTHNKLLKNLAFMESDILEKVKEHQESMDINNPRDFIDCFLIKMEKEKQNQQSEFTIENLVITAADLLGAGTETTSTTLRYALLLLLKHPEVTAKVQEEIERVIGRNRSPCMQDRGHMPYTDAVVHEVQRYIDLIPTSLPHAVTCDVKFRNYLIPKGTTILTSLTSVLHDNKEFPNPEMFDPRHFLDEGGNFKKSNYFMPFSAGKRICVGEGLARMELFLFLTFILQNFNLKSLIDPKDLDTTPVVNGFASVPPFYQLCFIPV
Sequence of rCYP2C9 (P11712 whole entry): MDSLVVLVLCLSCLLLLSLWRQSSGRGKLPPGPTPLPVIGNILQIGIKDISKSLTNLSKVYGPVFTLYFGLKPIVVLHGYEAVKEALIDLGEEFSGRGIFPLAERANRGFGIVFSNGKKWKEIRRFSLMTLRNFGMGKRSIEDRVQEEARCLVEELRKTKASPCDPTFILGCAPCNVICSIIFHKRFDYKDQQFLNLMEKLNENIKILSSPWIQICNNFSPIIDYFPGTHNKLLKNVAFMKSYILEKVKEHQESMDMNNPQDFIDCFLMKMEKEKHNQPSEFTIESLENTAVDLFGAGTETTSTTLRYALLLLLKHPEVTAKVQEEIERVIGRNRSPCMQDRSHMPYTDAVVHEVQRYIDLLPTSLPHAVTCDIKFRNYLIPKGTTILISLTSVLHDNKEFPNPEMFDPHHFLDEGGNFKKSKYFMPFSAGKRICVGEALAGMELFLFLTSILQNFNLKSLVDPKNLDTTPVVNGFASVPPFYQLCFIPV

C=C1CCC[C@]2(C)CC[C@@H](C(C)(C)O)C[C@@H]12 [β-Eudesmol]
Protein expression ratio of mCYP1A2 (mCYP1A2 [1]; 1 day, control 1.5): 1.06 | Protein expression ratio of mCYP1A2 (mCYP1A2 [1]; 7 days, control 1.88): 1.83 | Protein expression ratio of mCYP1A2 (mCYP1A2 [1]; 14 days, control 2.42): 2.05 | Protein expression ratio of mCYP1A2 (mCYP1A2 [1]; 21 days, control 2.20, listed as β-eudesmol, 100 mg/kg): significantly downregulated | Protein expression ratio of mCYP1A2 (mCYP1A2 [1]; 21 days, control 2.20, listed as β‐eudesmol, 100 mg/kg): 1.00 | Paracetamol concentration (mCYP1A2 activity) (mCYP1A2 [2]; 1 day, control 11.40): 12.35 µM | Paracetamol concentration (mCYP1A2 activity) (mCYP1A2 [2]; 7 days, control 12.25): 11.80 µM | Paracetamol concentration (mCYP1A2 activity) (mCYP1A2 [2]; 14 days, control 12.80): 13.25 µM | Paracetamol concentration (mCYP1A2 activity) (mCYP1A2 [2]; 21 days, control 12.90, listed as β-eudesmol, 100 mg/kg): significantly decreased | Paracetamol concentration (mCYP1A2 activity) (mCYP1A2 [2]; 21 days, control 12.90, listed as β‐eudesmol, 100 mg/kg): 8.30 µM | binding to hCYP2C9 (hCYP2C9): not | IC50 (rCYP2C9): 533 µM | Dehydronifedipine concentration (mCYP3A11 activity) (mCYP3A11 [3]; 1 day, control 6.70): 6.90 µM | Dehydronifedipine concentration (mCYP3A11 activity) (mCYP3A11 [3]; 7 days, control 6.90): 7.5 µM | Dehydronifedipine concentration (mCYP3A11 activity) (mCYP3A11 [3]; 14 days, control 7.55, listed as β-eudesmol, 100 mg/kg): significantly reduced | Dehydronifedipine concentration (mCYP3A11 activity) (mCYP3A11 [3]; 14 days, control 7.55, listed as β‐eudesmol, 100 mg/kg): 4.00 µM | Dehydronifedipine concentration (mCYP3A11 activity) (mCYP3A11 [3]; 21 days, control 7.75, listed as β-eudesmol, 100 mg/kg): significantly reduced | Dehydronifedipine concentration (mCYP3A11 activity) (mCYP3A11 [3]; 21 days, control 7.75, listed as β‐eudesmol, 100 mg/kg): 3.20 µM | IC50 (rCYP2C19): 173 µM | Protein expression ratio of mCYP3A11 (mCYP3A11 [4]; 1 day, control 1.73): 1.50 | Protein expression ratio of mCYP3A11 (mCYP3A11 [4]; 7 days, control 1.57): 1.62 | Protein expression ratio of mCYP3A11 (mCYP3A11 [4]; 14 days, control 2.31, listed as β-eudesmol, 100 mg/kg): significantly downregulated | Protein expression ratio of mCYP3A11 (mCYP3A11 [4]; 14 days, control 2.31, listed as β‐eudesmol, 100 mg/kg): 1.60 | Protein expression ratio of mCYP3A11 (mCYP3A11 [4]; 21 days, control 2.18, listed as β-eudesmol, 100 mg/kg): significantly downregulated | Protein expression ratio of mCYP3A11 (mCYP3A11 [4]; 21 days, control 2.18, listed as β‐eudesmol, 100 mg/kg): 1.42
